Experiments:
[1] = target: Geranylgeranyl transferase type I (Homo sapiens, UniProt P49354+P53609); experiment: Inhibition of human GGTase1 in human Burkitt lymphoma (Daudi) cell supernatant using [3H]geranylgeranyl
[2] = target: T1, Protein farnesyltransferase (Homo sapiens, UniProt P49354+P49356); experiment: Inhibition of human recombinant FTase using [3H]farnesyldiphosphate; assay type: protein-complex assay
[3] = Inhibition of rat RabGGTase using [3H]GGPP by scintillation counting
[4] = species on record: Homo sapiens; experiment: Selectivity ratio of IC50 for human GGTase 1 in human Burkitt lymphoma (Daudi) cell supernatant to IC50 for human recombinant FTase
[5] = Inhibition of human RabGGTase using [3H]GGPP by scintillation counting
[6] = target: T1, Protein farnesyltransferase; experiment: Binding affinity to FTase (unknown origin)

N#Cc1ccc2c(c1)CN(S(=O)(=O)c1cccs1)[C@@H](Cc1ccccc1)CN2Cc1ncc[nH]1
IC50 [1]: > 1000 nM | IC50 [2]: 1.35 nM

O=C(O)C(O)(Cc1cnc2ccccn12)P(=O)(O)O (single isomer, unassigned; (+)) [(2-HYDROXY-3-IMIDAZO[1,2-A]PYRIDIN-3-YL-2-PHOSPHONOPROPIONIC ACID (ENANTIONMERS)]
IC50 [3]: 1300 nM

O=C(NCCCn1ccnc1)[C@H]1CN([C@@H]2c3ccc(Cl)cc3CCc3cc(Br)cnc32)CCN1C(=O)NC1CCCCC1
IC50 [2]: 0.4 nM

Cc1ccccc1-c1cc(NCc2c[nH]cn2)ccc1C(=O)N[C@@H](CC(C)C)C(=O)O
Ratio IC50 [4]: > 250 | IC50 [1]: 21 nM | IC50 [2]: 5600 nM

CSCC[C@H](NC(=O)c1ccc(NC[C@@H](N)CS)cc1-c1ccccc1)C(=O)O
IC50 [1]: 50 nM

N#Cc1ccc2cc1Oc1ccc3c(c1)[C@@H](CCC3)N1CC[C@@H](NCc3cncn3C2)C1=O [(1R,5R)-30-OXO-19-OXA-2,6,10,12-TETRAAZAHEXACYCLO[18.6.2.1^{2,5}.1^{14,18}.0^{8,12}.0^{23,27}]TRIACONTA-8,10,14(29),15,17,20(28),21,23(27)-OCTAENE-17-CARBONITRILE (STRUCTURAL MIX)]
IC50 [2]: 0.02 nM

O=C(O)C(O)(Cc1cccnc1)P(=O)(O)O (configuration not stated)
IC50 [5]: 600000 nM | IC50 [3]: 24100 nM

O=C(O)C(Cl)(Cc1cccnc1)P(=O)(O)O (configuration not stated)
IC50 [3]: 16400 nM

CC(C)=CCC/C(C)=C/CC/C(C)=C/CO[P@@](=O)(O)OP(=O)(O)O [FARNESYL DIPHOSPHATE]
Kd [6]: 2 nM

Cn1cncc1CN(Cc1cccc(C#N)c1)c1ccc(C#N)c(-c2cccc3ccccc23)c1
IC50 [2]: 0.39 nM

COc1ccc(S(=O)(=O)N2Cc3cc(-c4ccc(C#N)o4)ccc3N(Cc3cncn3C)C[C@H]2Cc2ccc(OC(=O)NCc3ccccc3)cc2)cc1
IC50 [3]: 42 nM | IC50 [1]: > 99500 nM | IC50 [2]: > 9700 nM

Cn1cncc1[C@@](N)(c1ccc(Cl)cc1)c1ccc2c(c1)c(-c1cccc(Cl)c1)cc(=O)n2C [TIPIFARNIB]
IC50 [1]: > 50000 nM

COc1ccc(S(=O)(=O)N2Cc3cc(C#N)ccc3N(Cc3cncn3C)C[C@H]2Cc2ccccc2)cc1
IC50 [3]: 724 nM | IC50 [1]: > 99500 nM | IC50 [2]: 6 nM

NC(=O)N1CCC(CC(=O)N2CCC([C@H]3c4ncc(Br)cc4CCc4cc(Cl)cc(Br)c43)CC2)CC1 [LONAFARNIB]
IC50 [1]: > 50000 nM

Cc1ccccc1S(=O)(=O)N1[C@H](C(C)(C)C)C[C@@H](C(=O)O)[C@@H]1c1ccc(Cl)cc1
Ratio IC50 [4]: 100 | IC50 [1]: 466 nM | IC50 [2]: > 50000 nM

Cc1nc[nH]c1CN1CCN(C(=O)N[C@@H](CC(C)C)C(=O)O)[C@@H](Cc2ccccc2)C1=O [GGTI-2418]
Ratio IC50 [4]: > 5000 | IC50 [1]: 9.5 nM | IC50 [2]: 53000 nM

CC(C)[C@@H](CO[C@@H](Cc1ccccc1)C(=O)N[C@@H](CCS(C)(=O)=O)C(=O)O)NC[C@@H](N)CS
IC50 [1]: 50 nM | IC50 [2]: 1.8 nM

CC(C)C[C@H](NC(=O)c1ccc(NC[C@@H](N)CS)cc1-c1ccccc1)C(=O)O
IC50 [1]: 5 nM | IC50 [2]: 25 nM

Reference: ChEMBL document CHEMBL3217471, “Prenyltransferase Inhibitors: Treating Human Ailments from Cancer to Parasitic Infections” (Medchemcomm, 2013)
